Reference: patent US9833497B2, “Human originated EGF domain proteins and use of the same” (CHENGDU SOURCEBIO LIMITED-LIABILITY COMPANY, priority 2013, dated 2017)

Columns and labels:
Assay type in all cases: cell-based
Moraxella catarrhalis = experiment: MIC against Gram-negative bacteria: Moraxella catarrhalis
Outline: (§1)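 The recombinant human-originated EGF domain proteins were serially diluted two-fold against bacteria at 5×10^5 CFU/mL in LB medium. After shaken incubation at 37° C, the lowest concentration with no bacterial growth was recorded as the MIC.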

Enterobacter cloacae = experiment: MIC against Gram-negative bacteria: Enterobacter cloacae
Outline: as §1

Proteus vulgaris = experiment: MIC against Gram-negative bacteria: Proteus vulgaris
Outline: as §1

Klebsiella pneumonia = experiment: MIC against Gram-negative bacteria: Klebsiella pneumonia
Outline: as §1

E. coli DH5α = experiment: Antibacterial activity: MIC and growth curve against E. coli DH5α in 96-well plate; conditions: minimal inhibitory concentration against E. coli DH5α; 96-well plate, 5×10^5 CFU/mL, 37° C., judged after 8 h
Outline: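 Log-phase DH5α (OD600 about 0.5, 37° C, 185 rpm in LB) was pelleted, resuspended in fresh LB and seeded at 5×10^5 CFU/mL with recombinant protein at 50, 25 and 12.5 μg/mL (two-fold series), in triplicate. Plates were shaken at 175 rpm, 37° C, and OD600 was read every 30 min. MIC was the lowest concentration with no growth.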

E. coli BL21 = experiment: MIC against Gram-negative bacteria: E. coli BL21
Outline: as §1

Proteus mirabilis = experiment: MIC against Gram-negative bacteria: Proteus mirabilis
Outline: as §1

Serratia marcescens = experiment: MIC against Gram-negative bacteria: Serratia marcescens
Outline: as §1

Citrobacter diversus = experiment: MIC against Gram-negative bacteria: Citrobacter diversus
Outline: as §1

Aeromonas hydrophila = experiment: MIC against Gram-negative bacteria: Aeromonas hydrophila
Outline: as §1

Pseudomonas aeruginosa = experiment: MIC against Gram-negative bacteria: Pseudomonas aeruginosa
Outline: as §1

[1] = 96-well plate, 5×10^5 CFU/mL, 37° C., 10 h
[2] = Moraxella catarrhalis, 5×10^5 CFU/mL, 10 h cultivation at 37° C.
[3] = Enterobacter cloacae, 5×10^5 CFU/mL, 10 h cultivation at 37° C.
[4] = Proteus vulgaris, 5×10^5 CFU/mL, 10 h cultivation at 37° C.
[5] = Klebsiella pneumonia, 5×10^5 CFU/mL, 10 h cultivation at 37° C.
[6] = E. coli BL21, 5×10^5 CFU/mL, 10 h cultivation at 37° C.
[7] = Proteus mirabilis, 5×10^5 CFU/mL, 10 h cultivation at 37° C.
[8] = Serratia marcescens, 5×10^5 CFU/mL, 10 h cultivation at 37° C.
[9] = Citrobacter diversus, 5×10^5 CFU/mL, 10 h cultivation at 37° C.
[10] = Aeromonas hydrophila, 5×10^5 CFU/mL, 10 h cultivation at 37° C.
[11] = Pseudomonas aeruginosa, 5×10^5 CFU/mL, 10 h cultivation at 37° C.

Substance: PRT259 (GGCHTDALCSYVGPGQSRCTCKLGFAGDGYQC; listed as Homo sapiens)
- MIC (μg/mL) M. catarrhalis (Moraxella catarrhalis; M. catarrhalis, 10 h cultivation at 37° C., 5×10^5 CFU/mL): 12.5 µg/mL
- MIC (μg/mL) E. cloacae (Enterobacter cloacae; E. cloacae, 10 h cultivation at 37° C., 5×10^5 CFU/mL): 50 µg/mL
- MIC (μg/mL) P. vulgaris (Proteus vulgaris; P. vulgaris, 10 h cultivation at 37° C., 5×10^5 CFU/mL): 50 µg/mL
- MIC (μg/mL) K. pneumonia (Klebsiella pneumonia; K. pneumonia, 10 h cultivation at 37° C., 5×10^5 CFU/mL): 12.5 µg/mL
- MIC (E. coli DH5α): 12.5 µg/mL
- MIC (μg/mL) E. coli BL21 (E. coli BL21; E. coli BL21, 10 h cultivation at 37° C., 5×10^5 CFU/mL): 25 µg/mL
- MIC (μg/mL) P. mirabilis (Proteus mirabilis; P. mirabilis, 10 h cultivation at 37° C., 5×10^5 CFU/mL): 25 µg/mL
- MIC (μg/mL) S. marcescens (Serratia marcescens; S. marcescens, 10 h cultivation at 37° C., 5×10^5 CFU/mL): 25 µg/mL
- MIC (μg/mL) C. diversus (Citrobacter diversus; C. diversus, 10 h cultivation at 37° C., 5×10^5 CFU/mL): 50 µg/mL
- MIC (μg/mL) A. hydrophila (Aeromonas hydrophila; A. hydrophila, 10 h cultivation at 37° C., 5×10^5 CFU/mL): 12.5 µg/mL
- MIC (μg/mL) P. aeruginosa (Pseudomonas aeruginosa; P. aeruginosa, 10 h cultivation at 37° C., 5×10^5 CFU/mL): 50 µg/mL

Substance: PRT586 (CPCPEGPGSQRHFATSCHQDEYSQQIVCHCRAGYTGLRCEACAPGHFGDPSRPGGRCQL; listed as Homo sapiens)
- MIC against M. catarrhalis (Moraxella catarrhalis; [1]): 25 µg/mL
- MIC against E. cloacae (Enterobacter cloacae; [1]): 12.5 µg/mL
- MIC against P. vulgaris (Proteus vulgaris; [1]): 25 µg/mL
- MIC against K. pneumonia (Klebsiella pneumonia; [1]): 50 µg/mL
- MIC (E. coli DH5α): 12.5 µg/mL
- MIC against E. coli BL21 (E. coli BL21; [1]): 50 µg/mL
- MIC against P. mirabilis (Proteus mirabilis; [1]): 50 µg/mL
- MIC against S. marcescens (Serratia marcescens; [1]): 12.5 µg/mL
- MIC against C. diversus (Citrobacter diversus; [1]): 12.5 µg/mL
- MIC against A. hydrophila (Aeromonas hydrophila; [1]): 50 µg/mL
- MIC against P. aeruginosa (Pseudomonas aeruginosa; [1]): 12.5 µg/mL

Substance: PRT32 (RCEAQKWGPECNHLCTACMNNGVCHEDTGECICPPGFMGRTCE; listed as Homo sapiens)
- MIC (μg/mL) M. catarrhalis (Moraxella catarrhalis; Moraxella catarrhalis, 96-well plate, 5×10^5 CFU/mL, 37° C., 10 h): 50 µg/mL
- MIC (μg/mL) E. cloacae (Enterobacter cloacae; Enterobacter cloacae, 96-well plate, 5×10^5 CFU/mL, 37° C., 10 h): 25 µg/mL
- MIC (μg/mL) P. vulgaris (Proteus vulgaris; Proteus vulgaris, 96-well plate, 5×10^5 CFU/mL, 37° C., 10 h): 25 µg/mL
- MIC (μg/mL) K. pneumonia (Klebsiella pneumonia; Klebsiella pneumonia, 96-well plate, 5×10^5 CFU/mL, 37° C., 10 h): 12.5 µg/mL
- MIC (E. coli DH5α): 12.5 µg/mL
- MIC (μg/mL) E. coli BL21 (E. coli BL21; E. coli BL21, 96-well plate, 5×10^5 CFU/mL, 37° C., 10 h): 50 µg/mL
- MIC (μg/mL) P. mirabilis (Proteus mirabilis; Proteus mirabilis, 96-well plate, 5×10^5 CFU/mL, 37° C., 10 h): 12.5 µg/mL
- MIC (μg/mL) S. marcescens (Serratia marcescens; Serratia marcescens, 96-well plate, 5×10^5 CFU/mL, 37° C., 10 h): 50 µg/mL
- MIC (μg/mL) C. diversus (Citrobacter diversus; Citrobacter diversus, 96-well plate, 5×10^5 CFU/mL, 37° C., 10 h): 12.5 µg/mL
- MIC (μg/mL) A. hydrophila (Aeromonas hydrophila; Aeromonas hydrophila, 96-well plate, 5×10^5 CFU/mL, 37° C., 10 h): 50 µg/mL
- MIC (μg/mL) P. aeruginosa (Pseudomonas aeruginosa; Pseudomonas aeruginosa, 96-well plate, 5×10^5 CFU/mL, 37° C., 10 h): 12.5 µg/mL

Substance: PRT942 (LVNLCSRSPCKNKGTCVQKKAESQCLCPSGWAGAYCD; listed as Homo sapiens)
- MIC (Moraxella catarrhalis; M. catarrhalis, 10 h cultivation at 37° C.): 12.5 µg/mL
- MIC (Enterobacter cloacae; E. cloacae, 10 h cultivation at 37° C.): 12.5 µg/mL
- MIC (Proteus vulgaris; P. vulgaris, 10 h cultivation at 37° C.): 12.5 µg/mL
- MIC (Klebsiella pneumonia; K. pneumonia, 10 h cultivation at 37° C.): 50 µg/mL
- MIC (E. coli DH5α): 25 µg/mL
- MIC (E. coli BL21; E. coli BL21, 10 h cultivation at 37° C.): 50 µg/mL
- MIC (Proteus mirabilis; P. mirabilis, 10 h cultivation at 37° C.): 50 µg/mL
- MIC (Serratia marcescens; S. marcescens, 10 h cultivation at 37° C.): 50 µg/mL
- MIC (Citrobacter diversus; C. diversus, 10 h cultivation at 37° C.): 50 µg/mL
- MIC (Aeromonas hydrophila; A. hydrophila, 10 h cultivation at 37° C.): 25 µg/mL
- MIC (Pseudomonas aeruginosa; P. aeruginosa, 10 h cultivation at 37° C.): 12.5 µg/mL

Substance: PRT1443 (NHMPCPENLNGYCIHGKCEFIYSTQKASCRCESGYTGQHCE; listed as Homo sapiens)
- MIC against M. catarrhalis (Moraxella catarrhalis; [2]): 25 µg/mL
- MIC against E. cloacae (Enterobacter cloacae; [3]): 25 µg/mL
- MIC against P. vulgaris (Proteus vulgaris; [4]): 25 µg/mL
- MIC against K. pneumonia (Klebsiella pneumonia; [5]): 12.5 µg/mL
- MIC (E. coli DH5α): 25 µg/mL
- MIC against E. coli BL21 (E. coli BL21; [6]): 50 µg/mL
- MIC against P. mirabilis (Proteus mirabilis; [7]): 12.5 µg/mL
- MIC against S. marcescens (Serratia marcescens; [8]): 50 µg/mL
- MIC against C. diversus (Citrobacter diversus; [9]): 25 µg/mL
- MIC against A. hydrophila (Aeromonas hydrophila; [10]): 50 µg/mL
- MIC against P. aeruginosa (Pseudomonas aeruginosa; [11]): 25 µg/mL

Substance: PRT1417 (RACHPRCAEHGTCRDGKCECSPGWNGEHCT; listed as Homo sapiens)
- MIC against M. catarrhalis (Moraxella catarrhalis; [2]): 12.5 µg/mL
- MIC against E. cloacae (Enterobacter cloacae; [3]): 12.5 µg/mL
- MIC against P. vulgaris (Proteus vulgaris; [4]): 50 µg/mL
- MIC against K. pneumonia (Klebsiella pneumonia; [5]): 50 µg/mL
- MIC (E. coli DH5α): 25 µg/mL
- MIC against E. coli BL21 (E. coli BL21; [6]): 12.5 µg/mL
- MIC against P. mirabilis (Proteus mirabilis; [7]): 25 µg/mL
- MIC against S. marcescens (Serratia marcescens; [8]): 25 µg/mL
- MIC against C. diversus (Citrobacter diversus; [9]): 25 µg/mL
- MIC against A. hydrophila (Aeromonas hydrophila; [10]): 50 µg/mL
- MIC against P. aeruginosa (Pseudomonas aeruginosa; [11]): 12.5 µg/mL

Substance: PRT649 (DVDECLEPNVCANGDCSNLEGSYMCSCHKGYTRTPDHKHCR; listed as Homo sapiens)
- MIC M. catarrhalis (Moraxella catarrhalis; [1]): 12.5 µg/mL
- MIC E. cloacae (Enterobacter cloacae; [1]): 50 µg/mL
- MIC P. vulgaris (Proteus vulgaris; [1]): 50 µg/mL
- MIC K. pneumonia (Klebsiella pneumonia; [1]): 12.5 µg/mL
- MIC (E. coli DH5α): 50 µg/mL
- MIC E. coli BL21 (E. coli BL21; [1]): 12.5 µg/mL
- MIC P. mirabilis (Proteus mirabilis; [1]): 25 µg/mL
- MIC S. marcescens (Serratia marcescens; [1]): 25 µg/mL
- MIC C. diversus (Citrobacter diversus; [1]): 50 µg/mL
- MIC A. hydrophila (Aeromonas hydrophila; [1]): 12.5 µg/mL
- MIC P. aeruginosa (Pseudomonas aeruginosa; [1]): 50 µg/mL
